The results in this text go back to patent US11718593B2, “2,5-aryl-thiazole analogs for the treatment of neurodegenerative diseases” (Southern Research Institute, priority 2018, dated 2023).

As a reminder, the EC50 is the concentration needed to bring the measured effect to its halfway point.

Read-outs that look alike come from different tables or passages of the source.

Data set [1] concerns NF-κB. As to the kind of experiment: High throughput assay for NF-κB reporter activity (luciferase, stably transfected SH-SY5Y cells). Format: cell-based, human. To be noted: for maximal fold induction: 24 h, read-out: Emax. On the procedure: SH-SY5Y human neuroblastoma cell line was obtained from the American Tissue Culture collection (ATCC). A commercially available expression vector containing the NF-kB promoter enhancer region driving the firefly luciferase gene expression and a second plasmid containing the gene conferring resistance to blasticidin were used in a dual transfection approach to obtain a stable cell line. SH-SY5Y cells stably transfected with pNF-κB-luc/pEF6 were plated at 8,000 per well in a volume of 40 μl DMEM in either Corning white opaque, 384-well plates (Cat. No. 3570, Corning, Inc., Corning, N.Y.) or Corning black clear bottom, 384-well plates (Cat. No. 3712, Corning, Inc., Corning, N.Y.) and treated with test compounds for 24 hr at 37° C. Luciferase activity was measured as a reporter of NF-kB activation using the Bright-Glo Luciferase assay kit (Cat. No. E2620, Promega, Madison, Wis.) according to the manufacturer's instructions. Cell viability was measured using the CellTiter-Glo Luminescent Cell Viability assay kit (Cat. No. G7572, Promega, Madison, Wis.) according to the manufacturer's instructions. Briefly, cells were equilibrated at room temperature for 30 min prior to the addition of Bright-Glo to the white opaque plates or CellTiter-Glo to the black clear bottom plates. A volume of assay buffer equal to the volume of cell media was added to each well and incubated for five min to allow complete cell lysis. All procedures were performed in the dark. Luminescence was measured by the Synergy4 Multi-detection microplate reader (BioTek, Winooski, Vt.) within 15 min of lysis.

A short description of data set [2]: Plasma and brain levels in SOD1 G93A mice. The class given is in vivo, mouse. To be noted: 50 mg/kg I.P., within 30 minutes. As for the experimental part: Before the studies above were initiated, congenic SOD1 G93A mice were dosed with 50 mg/kg of compound no. 1 and compound no. 2 via I.P. injection to rule out any toxicity issues prior to initiating the efficacy study (FIG. 2A-C).

In data set [3] the test system is SOD2. Description: SOD2 mRNA expression by quantitative RT-PCR in NSC-34 neuroblastoma cells. Particulars: mouse NSC-34, 1 μM, 24 h (FIG. 1B). Format: cell-based.
Data set [4] relates to inhibitory κB. As to the kind of experiment: Inhibitory κB expression levels. Format: cell-based.
Data set [5] concerns SOD2. Description: SOD2 protein expression and SOD activity in primary rat cortical cultures. The class given is cell-based. To be noted: for SOD2 protein expression: primary rat cortical cultures (FIG. 1C); for SOD activity: primary rat cortical cultures (FIG. 1D). The text has this:
N=3-6/group, mean+/−SEM, *p<0.05, **p<0.01, 2-way ANOVA, post-hoc t-test.

Data set [6] relates to glutamate-induced toxicity in primary cultures. As to the kind of experiment: Neuroprotection in vitro. The class given is cell-based.
The nature of data set [7]: Bioavailability / PK study (IV and PO). Format: in vivo, mouse. Particulars: for oral bioavailability: I.V./P.O., 1 and 5 mg/kg; for half-life: male, CD1, mouse, plasma, read-out: plasma half-life (t1/2). As for the experimental part:
The experiments will involve the administration of compounds to 5-6 week old CD1 male mice. Mice are dosed by either a 1 mg/kg IV bolus or 5 mg/kg oral gavage. Blood samples are collected by cardiac puncture at 0, 0.25, 0.5, 1, 2, 4, 6, 8, 12, and 24 hrs. There will be three mice per time point. Plasma concentration over time will be determined by LC/MS from which the standard PK parameters of clearance, volume of distribution, t1/2 and % F can be derived using WinNoLin software (Pharsight Inc.). This will require a total of 60 mice per compound. Plasma will be analyzed by reverse phase chromatography with MS/MS detection operating in the positive ion mode using multiple reaction monitoring using an internal standard and Applied Biosystems Analyst 1.4 software. Peak time (when maximum plasma drug concentration occurs), peak drug level [approximate maximum concentrations of drug in plasma (Cmax)] and tin for drug elimination will be estimated for each tested compound. Bioavailability (F) will be calculated from the ratio of AUCPO/AUCIV and expressed as a percentage. To determine levels in brain, six additional mice will be dosed with 1 mg/kg I.V. and sacrificed at 0.25 and 1 hr. Brain and spinal cord samples will be collected at these two time points, quick frozen in an ice box and kept at −75±15° C. All samples will be weighed and homogenized with phosphate buffered saline (PBS) by brain weight (g) to PBS volume (mL) ratio 1:3 before analysis. The actual concentration is the detected value multiplied by the dilution factor.

For data set [8], the system named is SOD1 G93A transgenic mouse. Description: Efficacy in the SOD1 G93A transgenic mouse model of ALS. Format: in vivo. To be noted: for progression to a score of 4: 25 mg/kg I.P. daily from day 96, 4-point severity score; for survival: SOD1 G93A males, 25 mg/kg I.P. daily from day 96. As for the experimental part:
Briefly, Congenic SOD1-G93A mice were dosed with up to 50 mg/kg of both compounds (IP) to evaluate any toxicity issues prior to initiating the efficacy study. Also, mice administered 20 mg of each compound had high plasma and brain levels at 30 minutes. Next, individually genotyped SOD1-G93A mice (Prize4life-Jackson Labs) were treated with each compound (25 mg/kg, IP) at disease onset (day 96). The treatment extended survival, reduced weight loss and improved the neurologic symptoms. […] Data document a 66% and an 81% lifespan extension for the compounds, respectively, at 50% survival in male mice. […] The average weight within the groups before the treatment was similar.
While compounds which increase SOD2 expression and activity have potential utility in a number of neurodegenerative diseases involving ROS overproduction, it was decided to test these two compounds in a mouse model of ALS for a variety of reasons, including the evidence for oxidative stress in ALS (described above), the ability of these compounds to induce SOD2 in a motor neuron-like mouse cell line (NSC-34; FIG. 1B), and the availability of a mouse model with dysfunction in SOD1 (human SOD1 G93A transgenic mouse; Jackson Laboratory). The pilot experiment involved treating six wildtype and six SOD1 G93A transgenic males on the C57BL/6 background with 25 mg/kg compound no. 1 and compound no. 2 I.P. daily, beginning around disease onset (day 96; FIG. 2A and FIG. 2B). Mouse survival and behavioral phenotype were observed based on guidelines from “Working with ALS mice: JAX handbook,” using a 4-point severity score (FIG. 2C).
Referring to FIG. 2A and FIG. 2B, SOD1 G93A mice received daily IP injections of saline (control) or compounds (25 mg/kg) starting on day 96.

The test system of data set [9] is SOD2. Description: SOD2 mRNA expression by quantitative RT-PCR in SH-SY5Y neuroblastoma cells. To be noted: human SH-SY5Y, 1 μM, 6 h (FIG. 1A). The class given is cell-based.
The subject of data set [10] is SOD2. As to the kind of experiment: SOD2 mRNA expression in vitro (FIG. 5). Particulars: FIG. 1A-D. The class given is cell-based. From the text:
While a number of new compounds derived from Ataluren and compound no. […] 1 and no. 2. […] Whether these and other compounds are capable of inducing SOD2 mRNA and protein activity in vitro and in vivo, in addition to their ability to protect neurons from hydrogen peroxide or glutamate-induced cell death (as in Carri et al. (2015) Frontiers in cellular neuroscience 9:41) and dysfunction/cell death in the SOD1 G93A transgenic mouse model will also be evaluated.

Where [11] appears, read: Table 2, unit not given (μM for nos. 3 and 20).
Where [12] appears, read: Homo sapiens, SH-SY5Y, Table 2, no unit printed (text: fold).
Where [13] appears, read: Homo sapiens, SH-SY5Y, Table 2, unit not given (μM for nos. 3 and 20), read-out: EC50.

Regarding `Cc1noc(-c2cccc(-c3csc(Nc4ccccc4F)n3)c2)n1` [Compound 31], the EC50 entry in data set [1] (setting [11]) was “Inactive”.

In the case of `Fc1ccccc1Nc1nc(-c2cccc(C(F)(F)F)c2)cs1` [Compound 16], the maximal fold induction in [1] (setting [12]) amounted to 16. For the same compound, the EC50 in data set [1] (setting [13]) was 9.35 µM.

For `Fc1ccccc1Nc1nc(-c2ccc(C(F)(F)F)cc2)cs1` [Compound 26], the EC50 in [1] (setting [13]) is over 10 µM.

In the case of `O=C(/C=C\Nc1ccccc1Br)c1ccc2c(c1)OCO2` [Compound 1, (Z)-1-(Benzo[d][1,3]dioxol-5-yl)-3-((2-bromophenyl)amino)Prop-2-en-1-one], the “plasma and brain levels” value in [2] is “substantial plasma and brain levels”. Besides, the “SOD2 mRNA expression” value in data set [3] is recorded as “induce SOD2”. Further, the “inhibitory κB expression levels” value in data set [4] is “do not effect inhibitory κB expression levels”. Further, in [5], the SOD2 protein expression result was “induce SOD2” and the SOD activity entry is given as “increase”. For the same compound, the maximal fold induction in data set [1] (setting [12]) was found to be 26. The EC50 in data set [1] (setting [13]) worked out at 0.5 µM. Moreover, the neuroprotection in vitro result in data set [6] is listed as “neuroprotective in vitro”. In addition, in data set [7], the oral bioavailability entry is given as “lack of oral bioavailability” and the half-life was under 5 min. In data set [8], the “progression to a score of 4” value is “delayed” and the survival entry is “significantly prolonged”. Further, the “SOD2 mRNA expression” value in data set [9] is “induce SOD2”. The “SOD2 mRNA expression increase” value in [10] stood at 2 fold.

Regarding “N-(4-(2-((2-Fluorophenyl)amino)thiazol-4-yl)benzyl)acetamide [Compound 20]”, the Emax is over 20 fold in data set [1] and 27.58 in data set [1] (Table 2, no unit printed (text: fold)). Further, the 50% effective concentration (EC50) in [1] (Table 2, unit not given (μM for nos. 3 and 20), read-out: EC50) was determined as 3.75 µM; in data set [1] (read-out: EC50), 4 µM.

As for `O=C(O)c1cccc(-c2noc(-c3ccccc3F)n2)c1` [Ataluren, reference compound], the induction in [1] was 9-10 fold. Moreover, the EC50 in [1] (Homo sapiens, SH-SY5Y, read-out: EC50) came out at 1.5 µM.

`Cc1cccnc1Nc1nc(-c2ccccn2)cs1` [Compound 2, N-(3-Methylpyridin-2-yl)-4-(pyridin-2-yl)thiazol-2-amine]: the “plasma and brain levels” value in data set [2] was “substantial plasma and brain levels”. For the same compound, the “SOD2 mRNA expression” value in data set [3] is given as “induce SOD2”. The “inhibitory κB expression levels” value in data set [4] is listed as “do not effect inhibitory κB expression levels”. In data set [5], the SOD2 protein expression result is listed as “induce SOD2” and the SOD activity result is reported as “increase”. For the same compound, the maximal fold induction in data set [1] (setting [12]) is 40. Also, the EC50 in data set [1] (setting [13]) is 0.21 µM. For the same compound, the neuroprotection in vitro entry in data set [6] is given as “neuroprotective in vitro”. For the same compound, in data set [7], the oral bioavailability entry is given as “lack of oral bioavailability” and the half-life was under 5 min. For the same compound, in [8], the “progression to a score of 4” value is “delayed” and the survival entry is “significantly prolonged”. The “SOD2 mRNA expression” value in data set [9] was “induce SOD2”. Moreover, in data set [10], the “SOD2 mRNA expression increase” value was determined as 2 fold.

`O=C(NC1CC1)c1cccc(-c2csc(Nc3ccccc3F)n2)c1` [Compound 28]: the half-maximal effective concentration (EC50) result in data set [1] (setting [11]) was “Inactive”.

Consider `CC(C)(O)c1cccc(-c2csc(Nc3ccccc3F)n2)c1` [Compound 21], for which the maximal fold induction in data set [1] (setting [12]) was determined as 18.9. Further, the EC50 in data set [1] (setting [13]) is over 10 µM.

In the case of `Fc1ccccc1Nc1nc(-c2cccc(Cl)c2)cs1` [Compound 17], the maximal fold induction in data set [1] (setting [12]) was 14.5. Further, the EC50 in [1] (setting [13]) is over 10 µM.

Take `Fc1ccc(-c2csc(Nc3ccccc3F)n2)cc1` [Compound 43]: the EC50 entry in [1] (setting [11]) is reported as “Inactive”.

Turning to `Fc1ccc(-c2csc(Nc3ccccc3F)n2)cc1F` [Compound 19], the maximal fold induction in [1] (setting [12]) came to 18.5. The half-maximal effective concentration (EC50) in data set [1] (setting [13]) was over 10 µM.

In the case of `Fc1ccccc1Nc1nc(-c2ccc(Cl)c(Cl)c2)cs1` [Compound 29], the EC50 in [1] (setting [13]) was over 10 µM.

Consider `Fc1ccccc1Nc1nc(-c2ccc(OCC(F)(F)F)cc2)cs1` [Compound 24], for which the EC50 in data set [1] (setting [13]) was over 10 µM.

For the compound `N#Cc1ccc(-c2csc(Nc3ccccc3F)n2)cc1` [Compound 27], the EC50 in data set [1] (setting [13]) was over 10 µM.

Regarding `N#Cc1cccc(-c2csc(Nc3ccccc3F)n2)c1` [Compound 25], in [1] (setting [13]), the EC50 was over 10 µM.

For `NC(=O)c1cccc(-c2csc(Nc3ccccc3F)n2)c1` [Compound 30], the EC50 entry in data set [1] (setting [11]) is “Inactive”.
